This is an account of results in patent US20250075209A1, “RNAS FOR COMPLEMENT INHIBITION” (Apellis Pharmaceuticals, Inc., priority 2021, published 2025).

Oligonucleotides are written 5' to 3', each unit as a sugar letter and its base; * is a phosphorothioate linkage, no mark a phosphodiester; rarer units and linkages stand in square brackets, end groups in braces. Plain capitals give the bases only. Bridges are numbered along the chain shown (N, C = ends). [ ]: non-standard residue; d: D form. Bpa = N[C@@H](Cc1ccc(C(=O)c2ccccc2)cc1)C(=O)O; 1Nal = N[C@@H](Cc1cccc2ccccc12)C(=O)O; 2Nal = N[C@@H](Cc1ccc2ccccc2c1)C(=O)O; Igl = N[C@H](C(=O)O)C1Cc2ccccc2C1; m = 2'-O-methyl; f = 2'-fluoro

Data set [1] deals with factor B mRNA transcript. Description: Knockdown of factor B expression in HepG2 cells using siRNAs, dose response experiments (DRC). The following applies: Table 8; for Max Factor B inhibition (%): dose response up to 100 nM; for IC20 / IC50: reverse transfection, 10 concentrations from 100 nM in 6-fold dilutions, factor B mRNA normalized to GAPDH, relative to mock. In kind it is cell-based, human. The procedure: HepG2 cells were obtained from ATCC (ATCC in partnership with LGC Standards, Wesel, Germany, cat. #ATCC-HB-8065) and cultured in MEM Eagle (#M2279, Sigma-Aldrich, Germany), supplemented to contain 10% fetal calf serum (#1248D, Biochrom GmbH, Berlin, Germany), 1×non-essential amino acids (#K0293; Biochrom, Berlin, Germany), 4 mM L-Glutamine (#K0283, Biochrom, Berlin, Germany) and 100 U/ml Penicillin/100 μg/ml Streptomycin (#A2213, Biochrom GmbH, Berlin, Germany) at 37° C. in an atmosphere with 5% CO2 in a humidified incubator.
24 siRNAs were designed and synthesized to target different regions of the factor B mRNA transcript. In this experiment, the sense strand of each siRNA contained 18 nucleotides identical to a target region sequence on the factor B transcript (SEQ ID NO: 75), and one additional adenine nucleotide at the 3′ end. Additionally, in this experiment, the antisense strand contained 18 nucleotides complementary to a target region sequence on the factor B transcript (SEQ ID NO: 75), and one additional uracil nucleotide at the 5′ end, and 2 additional uracil nucleotides at the 3′ end.
Transfection of siRNA was carried out with Lipofectamine RNAiMax (Invitrogen/Life Technologies, Karlsruhe, Germany) according to manufacturer's instructions for reverse transfection.
Each siRNA was tested using dose response experiments (DRC) in HepG2 cells. Dose-response experiments were done with siRNA in 10 concentrations transfected in quadruplicates, starting at 100 nM in 6-fold dilutions steps down to ˜10 fM. Mock transfected cells served as negative controls.
For each well, the target mRNA level was normalized to the respective GAPDH mRNA level. The activity of a given siRNA was expressed as percent mRNA concentration of the respective target (normalized to GAPDH mRNA) in treated cells, relative to the target mRNA concentration (normalized to GAPDH mRNA) averaged across mock transfected wells (DRCs).
Dose response experiments described above were repeated in a subset of siRNAs shown in Table 9, specifically siRNAs 2, 7, 8, and 3.

Data set [2] deals with complement activation. The following applies: relative to compstatin amidated at the C-terminus; based on published data (WO2004/026328, WO2007044668, Mallik 2005, Katragadda 2006); cited from earlier work.

In general, IC20 refers to the point of the concentration-response curve where the effect stands at 20%. Higher therefore signals a need for much substance. As usually defined, the IC50 is the concentration that gives 50% inhibition. The low end stands for greater potency in that assay, the high end for weaker potency in that assay. With “21 (sense mC*mC*fUmUmGmAfUfAfGmUmUfCmAmCmAmAfGmAmA; antisense mU*fU*mCmUmUmGmUmGmAmAmCmUmAfUmCmAmAmGmG*mU*mU; siRNA) [compound 21]”, in data set [1], the “Max Factor B inhibition (%)” value was 72.43%, the IC20 amounted to 0.12 nM and it took 1.63 nM to reach half-maximal inhibition (IC50).
For the substance “22 (sense mC*mU*fCmAmAmGfAfGfGmUmGfGmCmCmGmAfAmGmA; antisense mU*fC*mUmUmCmGmGmCmCmAmCmCmUfCmUmUmGmAmG*mU*mU; siRNA) [compound 22]”, in data set [1], the “Max Factor B inhibition (%)” value was determined as 72.01%, it took 0.32 nM to reach the 20% level (IC20) and the IC50 is 2.09 nM.
Regarding “23 (sense mU*mU*fUmUmAmUfGfAfCmUmAfUmGmAmCmGfUmUmA; antisense mU*fA*mAmCmGmUmCmAmUmAmGmUmCfAmUmAmAmAmA*mU*mU; siRNA) [compound 23]”, in data set [1], the “Max Factor B inhibition (%)” value turned out to be 68.74%, the IC20 turned out to be 0.22 nM and it took 2.44 nM to reach half-maximal inhibition (IC50).
Take “24 (sense mU*mU*fCmCmGmAfCfUfUmCmUfCmCmAmAmGfAmGmA; antisense mU*fC*mUmCmUmUmGmGmAmGmAmAmGfUmCmGmGmAmA*mU*mU; siRNA) [compound 24]”: in data set [1], the “Max Factor B inhibition (%)” value came out at 61.56%, the IC20 is 0.51 nM and half-maximal inhibition (IC50) was put at 2.76 nM.
Take “Ac-ICV(1-Nal)QDWGAHRCT-COOH (Ac-ICV[1Nal]QDWGAHRCT-OH; not fully specified (bridges); printed as Ac-ICV(1-Nal)QDWGAHRCT-COOH; cysteine pairing not given here) [Ac V4(1-Nal)/H9A-OH]”: in data set [2], the Activity over compstatin was 30xmore.
As to “Ac-ICV(2-Igl)QDWGAHRCT-CONH2 (Ac-ICV[Igl]QDWGAHRCT-NH2; not fully specified (bridges); printed as Ac-ICV(2-Igl)QDWGAHRCT-CONH2; cysteine pairing not given here) [Ac-V42Igl/H9A]”, the Activity over compstatin in data set [2] is 39xmore.
Consider “Ac-ICV(2-Igl)QDWGAHRCT-COOH (Ac-ICV[Igl]QDWGAHRCT-OH; not fully specified (bridges); printed as Ac-ICV(2-Igl)QDWGAHRCT-COOH; cysteine pairing not given here) [Ac-V42Igl/H9A-OH]”, for which, in data set [2], the Activity over compstatin was 37xmore.
In the case of “Ac-ICV(2-Nal)CQDWGAHRCT-ONH2 (Ac-ICV[2Nal]QDWGAHRCT-NH2; ends and bridges not checked) [Ac-V4(2-Nal)/H9A]”, the Activity over compstatin in data set [2] was 99xmore.
In the case of “Ac-ICV(2-Nal)QDWGAHRCT-COOH (Ac-ICV[2Nal]QDWGAHRCT-OH; not fully specified (bridges); printed as Ac-ICV(2-Nal)QDWGAHRCT-COOH; cysteine pairing not given here) [Ac V4(2-Nal)/H9A-OH]”, in data set [2], the Activity over compstatin is given as 38xmore.
Consider “Ac-ICV(Bpa)QDWGAHRCT-CONH2 (Ac-ICV[Bpa]QDWGAHRCT-NH2; not fully specified (bridges); printed as Ac-ICV(Bpa)QDWGAHRCT-CONH2; cysteine pairing not given here) [Ac-V4(Bpa)/H9A]”, for which, in data set [2], the Activity over compstatin was 86xmore.
Turning to “Ac-ICV(Bpa)QDWGAHRCT-COOH (Ac-ICV[Bpa]QDWGAHRCT-OH; not fully specified (bridges); printed as Ac-ICV(Bpa)QDWGAHRCT-COOH; cysteine pairing not given here) [Ac-V4(Bpa)/H9A-OH]”, in data set [2], the Activity over compstatin was 49xmore.
Turning to Ac-ICVVQDWGHHRCT-CONH2 [Ac-compstatin], in data set [2], the Activity over compstatin is 3xmore.
Take “Ac-ICVWQDWGAHRCT-CONH2 (Ac-ICVWQDWGAHRCT-NH2; disulfide 2-12 (inferred)) [Ac-V4W/H9A]”: the Activity over compstatin in data set [2] is given as 45xmore.
“Ac-ICVWQDWGAHRCdT-COOH [Ac-V4W/H9A/T13dT-OH]”: the Activity over compstatin in data set [2] is recorded as 55xmore.
For Ac-ICVYQDWGAHRCT-CONH2 [Ac-V4Y/H9A], the Activity over compstatin in data set [2] is on record as 14xmore.
As to “H-GICV(6fW)QD(6fW)GAHRCTN-COOH (GICVXQDXGAHRCTN; not fully specified; 6-fluoro-Trp residues; C-terminal acid; SITE 1 N-term H - hydrogenated Glycine; SITE 5 6-fluoro-tryptophan; SITE 8 6-fluoro-tryptophan; SITE 15 C-term COOH - Asparagine carboxide) [+G/V4(6fW)/W7(6fW)H9A + N-OH]”, in data set [2], the Activity over compstatin is 126xmore.
